Results: PMC8550792, “Evolution of kinase polypharmacology across HSP90 drug discovery” (Cell Chemical Biology, 2021)
Values joined by “and” are separate entries in the source; they are usually repeats but may differ in a detail not shown here. Equal values may be shown once. Read-outs that look alike come from different tables or passages of the source.

Key:
382 unique human kinases [1] = molecular target: T1, 382 unique human kinases (Homo sapiens, UniProt P24941); experiment: biochemical; assay type: biochemical; details: for remaining activity at 10 µM: read-out: % Enzyme Activity (relative to DMSO controls)
T1 construct: purchased Reaction Biology (HotSpot contract assay)

382 unique human kinases [2] = molecular target: T2, 382 unique human kinases (Homo sapiens, UniProt P11802); experiment: biochemical; assay type: biochemical; details: for remaining activity at 10 µM: read-out: % Enzyme Activity (relative to DMSO controls)
T2 construct: purchased Reaction Biology (HotSpot contract assay)
T2 sequence (P11802 whole entry): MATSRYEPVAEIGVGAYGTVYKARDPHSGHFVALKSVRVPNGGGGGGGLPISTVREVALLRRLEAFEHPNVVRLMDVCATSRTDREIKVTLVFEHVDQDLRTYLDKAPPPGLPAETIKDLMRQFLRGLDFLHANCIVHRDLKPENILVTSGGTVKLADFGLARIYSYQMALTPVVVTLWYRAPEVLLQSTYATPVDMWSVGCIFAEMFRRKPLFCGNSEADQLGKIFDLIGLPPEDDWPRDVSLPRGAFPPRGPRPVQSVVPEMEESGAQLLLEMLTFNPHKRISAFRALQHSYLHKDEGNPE

382 unique human kinases [3] = molecular target: T3, 382 unique human kinases (Homo sapiens, UniProt P50750); experiment: biochemical; assay type: biochemical; details: for remaining activity at 10 µM: read-out: % Enzyme Activity (relative to DMSO controls)
T3 construct: purchased Reaction Biology (HotSpot contract assay)
T3 sequence (P50750 whole entry): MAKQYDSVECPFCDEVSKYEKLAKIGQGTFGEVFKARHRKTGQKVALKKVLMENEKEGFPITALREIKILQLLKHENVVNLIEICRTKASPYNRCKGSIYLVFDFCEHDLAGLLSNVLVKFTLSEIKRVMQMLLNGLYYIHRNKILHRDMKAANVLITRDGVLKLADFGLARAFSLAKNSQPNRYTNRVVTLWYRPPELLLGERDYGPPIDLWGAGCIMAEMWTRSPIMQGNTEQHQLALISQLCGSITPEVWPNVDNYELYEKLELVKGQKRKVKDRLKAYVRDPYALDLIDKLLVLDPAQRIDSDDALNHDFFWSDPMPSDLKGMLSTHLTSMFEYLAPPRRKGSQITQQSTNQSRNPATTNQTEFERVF

382 unique human kinases [4] = molecular target: T4, 382 unique human kinases (Homo sapiens, UniProt Q00534); experiment: biochemical; assay type: biochemical; details: kinase CDK6/cyclin D1, compound 10 uM; for remaining activity at 10 µM: read-out: % Enzyme Activity (relative to DMSO controls)
T4 construct: purchased Reaction Biology (HotSpot contract assay)
T4 sequence (Q00534 whole entry): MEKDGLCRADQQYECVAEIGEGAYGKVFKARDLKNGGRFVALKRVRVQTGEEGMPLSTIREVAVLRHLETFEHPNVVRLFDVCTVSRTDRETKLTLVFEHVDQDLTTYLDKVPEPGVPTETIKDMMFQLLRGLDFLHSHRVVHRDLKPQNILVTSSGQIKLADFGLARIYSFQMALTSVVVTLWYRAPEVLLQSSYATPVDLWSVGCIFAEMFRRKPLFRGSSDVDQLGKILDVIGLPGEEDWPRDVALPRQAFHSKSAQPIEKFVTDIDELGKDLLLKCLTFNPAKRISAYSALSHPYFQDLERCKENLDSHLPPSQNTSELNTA

LYN B = molecular target: T5, LYN B (Homo sapiens, UniProt P07948); experiment: HotSpot in vitro kinase radiometric assay; assay type: biochemical; details: 10 μM; Fig 6C median ± standard deviation (n = 2)
T5 construct: purchased Reaction Biology (HotSpot contract assay)
Procedure, shortened: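 Off-target screen in a radioisotope catalytic assay: test compounds incubated with each kinase, its substrate, cofactors and 33P- or 32P-labelled ɣ-ATP. Filters retaining labelled product gave the signal.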

TRKA-TFG (TRK-T3) = molecular target: T6, TRKA-TFG (TRK-T3) (Homo sapiens, UniProt P04629+Q92734); experiment: HotSpot in vitro kinase radiometric assay; assay type: biochemical
T6 construct: purchased Reaction Biology (HotSpot contract assay)
T6 sequence (Q92734+P04629 fused): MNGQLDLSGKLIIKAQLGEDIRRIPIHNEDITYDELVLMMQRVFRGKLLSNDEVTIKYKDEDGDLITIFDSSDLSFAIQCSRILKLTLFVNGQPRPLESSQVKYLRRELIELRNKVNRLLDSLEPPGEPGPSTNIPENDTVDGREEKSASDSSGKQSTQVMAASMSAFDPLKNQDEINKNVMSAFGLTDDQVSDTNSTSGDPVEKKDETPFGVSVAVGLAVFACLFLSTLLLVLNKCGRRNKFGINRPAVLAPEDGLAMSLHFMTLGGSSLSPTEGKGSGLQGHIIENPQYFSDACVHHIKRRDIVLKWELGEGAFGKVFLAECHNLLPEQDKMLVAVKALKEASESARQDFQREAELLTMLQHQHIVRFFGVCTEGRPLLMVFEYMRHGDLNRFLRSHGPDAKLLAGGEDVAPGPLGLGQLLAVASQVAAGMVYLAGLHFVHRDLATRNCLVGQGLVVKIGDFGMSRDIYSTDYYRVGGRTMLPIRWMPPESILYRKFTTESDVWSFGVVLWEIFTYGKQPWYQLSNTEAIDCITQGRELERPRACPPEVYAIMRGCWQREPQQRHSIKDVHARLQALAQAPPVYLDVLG

HSP90AB1 = system: HSP90AB1; parameters: method as in ChEMBL23 (accessed: 23/08/2018); details: average of reported values; ref ChEMBL23 (accessed: 23/08/2018); cited from earlier work
TRAP1 = system: TRAP1; parameters: method as in ChEMBL23 (accessed: 23/08/2018); details: average of reported values; ref ChEMBL23 (accessed: 23/08/2018); cited from earlier work
ABL1 = ABL1 (Homo sapiens, UniProt P00519); experiment: HotSpot in vitro kinase radiometric assay; assay type: biochemical; parameters: purchased Reaction Biology (HotSpot contract assay)
Sequence of ABL1 (P00519 whole entry): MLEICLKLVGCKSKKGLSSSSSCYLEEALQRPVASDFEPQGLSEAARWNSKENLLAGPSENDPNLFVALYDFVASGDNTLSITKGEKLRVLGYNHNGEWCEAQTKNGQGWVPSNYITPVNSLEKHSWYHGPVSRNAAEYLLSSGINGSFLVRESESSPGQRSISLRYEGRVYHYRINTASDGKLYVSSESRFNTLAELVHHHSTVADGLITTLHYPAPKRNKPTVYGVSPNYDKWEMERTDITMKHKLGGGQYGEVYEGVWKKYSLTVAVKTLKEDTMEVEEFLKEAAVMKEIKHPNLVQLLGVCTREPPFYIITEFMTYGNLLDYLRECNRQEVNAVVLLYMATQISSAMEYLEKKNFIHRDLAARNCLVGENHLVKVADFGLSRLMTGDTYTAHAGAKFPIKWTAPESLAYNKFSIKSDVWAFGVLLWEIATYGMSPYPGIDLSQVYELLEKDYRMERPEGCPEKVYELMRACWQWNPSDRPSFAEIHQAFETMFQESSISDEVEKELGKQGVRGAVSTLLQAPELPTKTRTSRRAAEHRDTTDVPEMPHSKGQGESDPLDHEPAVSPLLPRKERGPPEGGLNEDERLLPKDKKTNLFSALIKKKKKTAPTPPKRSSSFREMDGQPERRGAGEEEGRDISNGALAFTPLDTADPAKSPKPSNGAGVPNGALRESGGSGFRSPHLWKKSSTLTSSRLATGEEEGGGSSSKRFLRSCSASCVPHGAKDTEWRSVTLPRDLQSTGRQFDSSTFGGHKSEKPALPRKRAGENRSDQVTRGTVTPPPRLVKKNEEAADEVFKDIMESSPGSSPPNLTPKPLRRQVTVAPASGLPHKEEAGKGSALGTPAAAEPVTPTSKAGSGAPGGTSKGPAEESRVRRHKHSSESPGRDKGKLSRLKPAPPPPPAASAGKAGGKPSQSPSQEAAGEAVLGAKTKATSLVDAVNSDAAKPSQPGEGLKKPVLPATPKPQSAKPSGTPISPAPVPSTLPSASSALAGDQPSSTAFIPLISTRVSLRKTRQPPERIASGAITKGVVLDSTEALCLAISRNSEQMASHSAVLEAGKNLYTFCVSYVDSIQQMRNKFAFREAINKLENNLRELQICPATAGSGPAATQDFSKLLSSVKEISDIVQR

382 unique human kinases [5] = experiment: biochemical; assay type: biochemical
ABL2/ARG = molecular target: T7, ABL2/ARG (Homo sapiens, UniProt P42684); experiment: HotSpot in vitro kinase radiometric assay; assay type: biochemical
T7 construct: purchased Reaction Biology (HotSpot contract assay)
T7 sequence (P42684 whole entry): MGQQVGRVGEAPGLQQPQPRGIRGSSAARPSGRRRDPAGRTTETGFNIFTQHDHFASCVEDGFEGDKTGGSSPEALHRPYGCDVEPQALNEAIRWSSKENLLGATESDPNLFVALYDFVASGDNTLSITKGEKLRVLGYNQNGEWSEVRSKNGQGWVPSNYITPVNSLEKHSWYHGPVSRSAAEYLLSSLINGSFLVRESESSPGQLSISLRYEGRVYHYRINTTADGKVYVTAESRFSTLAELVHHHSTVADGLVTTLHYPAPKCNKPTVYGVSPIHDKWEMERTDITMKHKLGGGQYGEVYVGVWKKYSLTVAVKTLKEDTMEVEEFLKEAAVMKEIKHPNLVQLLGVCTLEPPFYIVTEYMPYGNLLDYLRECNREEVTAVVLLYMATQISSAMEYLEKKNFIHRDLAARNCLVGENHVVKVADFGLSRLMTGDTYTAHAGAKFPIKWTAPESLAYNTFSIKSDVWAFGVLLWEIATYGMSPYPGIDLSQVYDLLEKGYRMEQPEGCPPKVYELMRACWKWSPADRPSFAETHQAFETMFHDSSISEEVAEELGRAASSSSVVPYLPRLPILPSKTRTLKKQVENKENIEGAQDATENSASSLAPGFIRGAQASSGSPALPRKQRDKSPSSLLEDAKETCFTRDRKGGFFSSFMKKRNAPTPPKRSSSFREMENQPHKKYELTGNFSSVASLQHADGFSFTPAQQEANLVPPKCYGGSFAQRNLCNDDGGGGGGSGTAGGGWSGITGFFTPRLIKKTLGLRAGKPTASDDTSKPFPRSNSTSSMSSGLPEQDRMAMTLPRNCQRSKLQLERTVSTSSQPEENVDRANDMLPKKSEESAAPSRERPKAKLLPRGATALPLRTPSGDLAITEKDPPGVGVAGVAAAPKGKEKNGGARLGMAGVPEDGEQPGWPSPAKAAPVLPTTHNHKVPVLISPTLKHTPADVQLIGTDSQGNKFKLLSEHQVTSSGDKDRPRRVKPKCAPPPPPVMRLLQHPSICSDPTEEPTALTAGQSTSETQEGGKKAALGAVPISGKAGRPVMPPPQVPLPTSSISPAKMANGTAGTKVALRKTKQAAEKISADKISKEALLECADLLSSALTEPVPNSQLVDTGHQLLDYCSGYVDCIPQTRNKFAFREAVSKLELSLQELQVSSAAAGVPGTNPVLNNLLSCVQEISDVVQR

DDR1 = DDR1 (Homo sapiens, UniProt Q08345); experiment: HotSpot in vitro kinase radiometric assay; assay type: biochemical; parameters: purchased Reaction Biology (HotSpot contract assay)
Sequence of DDR1 (Q08345 19-913): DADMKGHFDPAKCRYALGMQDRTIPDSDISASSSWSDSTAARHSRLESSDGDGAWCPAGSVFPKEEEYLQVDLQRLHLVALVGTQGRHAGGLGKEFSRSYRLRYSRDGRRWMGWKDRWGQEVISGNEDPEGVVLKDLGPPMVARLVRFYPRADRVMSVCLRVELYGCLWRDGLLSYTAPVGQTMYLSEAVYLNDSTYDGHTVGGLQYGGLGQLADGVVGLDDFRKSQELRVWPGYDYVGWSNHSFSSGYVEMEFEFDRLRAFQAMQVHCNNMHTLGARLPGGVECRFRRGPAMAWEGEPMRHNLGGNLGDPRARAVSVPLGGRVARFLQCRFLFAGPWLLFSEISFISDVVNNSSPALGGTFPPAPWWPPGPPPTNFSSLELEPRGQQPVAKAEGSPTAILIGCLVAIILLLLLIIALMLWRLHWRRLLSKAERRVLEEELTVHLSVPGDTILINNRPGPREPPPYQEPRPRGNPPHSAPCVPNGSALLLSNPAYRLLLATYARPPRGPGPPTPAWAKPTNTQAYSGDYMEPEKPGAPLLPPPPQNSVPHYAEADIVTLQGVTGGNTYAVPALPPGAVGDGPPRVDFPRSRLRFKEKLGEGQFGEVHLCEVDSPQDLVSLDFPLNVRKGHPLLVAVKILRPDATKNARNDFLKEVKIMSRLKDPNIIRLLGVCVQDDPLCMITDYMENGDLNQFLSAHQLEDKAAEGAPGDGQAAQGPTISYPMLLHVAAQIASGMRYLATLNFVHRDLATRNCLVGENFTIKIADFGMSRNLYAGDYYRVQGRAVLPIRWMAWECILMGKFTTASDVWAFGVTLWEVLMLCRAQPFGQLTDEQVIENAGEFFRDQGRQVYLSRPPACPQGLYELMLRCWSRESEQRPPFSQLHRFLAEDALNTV

[6] = kinase CDK2/cyclin O, compound 10 uM
[7] = kinase CDK9/cyclin K, compound 10 uM

Structure (SMILES): CC(C)c1cc(-c2n[nH]c(=O)n2-c2ccc3c(ccn3C)c2)c(O)cc1O [Ganetespib (STA9090)]
- remaining activity at 10 µM (382 unique human kinases [1]; CDK2/cyclin A, 10 uM): 74.3%
- remaining activity at 10 µM (382 unique human kinases [1]; [6]): 92.8%
- remaining activity at 10 µM (382 unique human kinases [2]; CDK4/cyclin D1, 10 uM): 65.6%
- remaining activity at 10 µM (382 unique human kinases [3]; CDK9/cyclin T2, 10 uM): 69.9%
- remaining activity at 10 µM (382 unique human kinases [3]; [7]): 87%
- remaining activity at 10 µM (382 unique human kinases [4]): 85%

Structure (SMILES): CC(C)c1cc(-c2n[nH]c(=O)n2-c2ccc3c(ccn3C)c2)c(O)cc1O [Ganetespib]
- % inhibition at 10 uM: LYN B (LYN B): not inhibited
- HILLSLOPE (TRKA-TFG (TRK-T3); TRKA-TFG, single replicate curves): -1.03 and -1.06 and -1.02
- IC50 (TRKA-TFG (TRK-T3); TRKA-TFG, single replicate curves, read-out: IC50): 328 nM and 331 nM and 326 nM
- IC50 (TRKA-TFG (TRK-T3); radiometric 10-point concentration-response, n = 3, read-out: in vitro biochemical IC50, TRKA-TFG): 329 nM
- inhibition at 1 µM (TRKA-TFG (TRK-T3); read-out: % inhibition of TRKA-TFG at 1 μM, 1 μM, secondary screening): > 80%
- inhibition at 10 µM (TRKA-TFG (TRK-T3); read-out: % inhibition of TRKA-TFG at 10 μM, 10 μM, kinome profiling): > 85%
- pActivity, HSP90AB1 (HSP90AB1): 8.3
- pActivity, TRAP1 (TRAP1): 7.29
- HILLSLOPE (ABL1; ABL1, single replicate curves): -0.99 and -0.93 and -0.96
- IC50 (ABL1; ABL1, single replicate curves, read-out: IC50): 625 nM and 519 nM and 539 nM
- IC50 (ABL1; radiometric 10-point concentration-response, n = 3, read-out: in vitro biochemical IC50, ABL1): 561 nM
- inhibition at 1 µM (ABL1; read-out: % inhibition of ABL1 at 1 μM, 1 μM, secondary screening): > 80%
- number of kinases with inhibition of catalytic activity below 1 μM (382 unique human kinases [5]): 4
- number of native kinases inhibited by more than 85% at 10 μM (382 unique human kinases [5]; 10 μM): 20
- In vitro screening: kinases hit / kinases screened (382 unique human kinases [5]; Figure 3): 21/382
- number of off-target kinases experimentally identified, In vitro binding (KinomeSCAN) (382 unique human kinases [5]; cutoff of >85% inhibition at 10 μM, luminespib and ganetespib large kinome panel, others 16-kinase panel): 21
- remaining activity at 10 µM (382 unique human kinases [1]; CDK2/Cyclin A1, 10 uM): 108%
- remaining activity at 10 µM (382 unique human kinases [1]; CDK2/cyclin E, 10 uM): 93.7%
- remaining activity at 10 µM (382 unique human kinases [2]; CDK4/cyclin D3, [ATP] 5 µM, compound 10 uM): 53.8%
- remaining activity at 10 µM (382 unique human kinases [3]; CDK9/cyclin T1, 10 uM): 100%
- HILLSLOPE (ABL2/ARG; ABL2, single replicate curves): -0.77 and -0.90 and -0.92
- IC50 (ABL2/ARG; ABL2, single replicate curves, read-out: IC50): 174 nM and 230 nM and 240 nM
- IC50 (ABL2/ARG; radiometric 10-point concentration-response, n = 3, read-out: in vitro biochemical IC50, ABL2): 215 nM
- inhibition at 1 µM (ABL2/ARG; read-out: % inhibition of ABL2 at 1 μM, 1 μM, secondary screening): > 85%
- HILLSLOPE (DDR1; DDR1, single replicate curves): -0.94 and -1.03 and -0.91
- IC50 (DDR1; DDR1, single replicate curves, read-out: IC50): 361 nM and 363 nM and 289 nM
- IC50 (DDR1; radiometric 10-point concentration-response, n = 3, read-out: in vitro biochemical IC50, DDR1): 338 nM
- inhibition at 1 µM (DDR1; read-out: % inhibition of DDR1 at 1 μM, 1 μM, secondary screening): > 85%

Structure (SMILES): CCNC(=O)c1noc(-c2cc(C(C)C)c(O)cc2O)c1-c1ccc(CN2CCOCC2)cc1 [Luminespib (AUY-922)]
- % Enzyme Activity (relative to DMSO controls) (382 unique human kinases [5]; ALK (F1174L)-EML4, 10 uM): 85.87% and 84.56%
- % Enzyme Activity (relative to DMSO controls) (382 unique human kinases [5]; ALK (F1174L)-NPM1, 10 uM): 102.87% and 100.42%
- % Enzyme Activity (relative to DMSO controls) (382 unique human kinases [5]; ALK-NPM1, 10 uM): 100.77% and 99.39%
- % Enzyme Activity (relative to DMSO controls) (382 unique human kinases [5]; ALK-TFG, 10 uM): 100.17% and 98.13%
- % Enzyme Activity (relative to DMSO controls) (382 unique human kinases [5]; BRAF (R506_K507insVLR), compound at 10 uM, duplicate values): 111.39% and 111.37%
- % Enzyme Activity (relative to DMSO controls) (382 unique human kinases [5]; BRAF (d485-489/P490Y), compound at 10 uM, duplicate values): 105.00% and 104.80%
- % Enzyme Activity (relative to DMSO controls) (382 unique human kinases [5]; BRAF-KIAA1549 (Kex15Bex9), compound at 10 uM, duplicate values): 106.11% and 102.92%
- % Enzyme Activity (relative to DMSO controls) (382 unique human kinases [5]; BRAF-KIAA1549 (Kex16Bex9), compound at 10 uM, duplicate values): 104.70% and 104.59%
- % Enzyme Activity (relative to DMSO controls) (382 unique human kinases [5]; BRAF-SRGAP3 (Sex12Bex9), compound at 10 uM, duplicate values): 107.79% and 106.99%
- % Enzyme Activity (relative to DMSO controls) (382 unique human kinases [5]; PDGFRb-TPM3, 10 uM): 63.63% and 61.80%
- % Enzyme Activity (relative to DMSO controls) (382 unique human kinases [5]; PKG1b, 10 uM): 60.28% and 59.59%
- % Enzyme Activity (relative to DMSO controls) (382 unique human kinases [5]; RET-CCDC6 (PTC1), 10 uM): 105.26% and 102.15%
- % Enzyme Activity (relative to DMSO controls) (382 unique human kinases [5]; RET-NCOA4 (PTC3), 10 uM): 95.03% and 94.64%
- % Enzyme Activity (relative to DMSO controls) (382 unique human kinases [5]; RET-PRKAR1A (PTC2), 10 uM): 95.60% and 94.13%
- % Enzyme Activity (relative to DMSO controls) (382 unique human kinases [5]; ROS1-TPM3, 10 uM): 97.28% and 96.49%
- % Enzyme Activity (relative to DMSO controls) (382 unique human kinases [5]; kinase EGFR (A763_Y764insFHEA), compound 10 uM): 98.66% and 97.53%
- % Enzyme Activity (relative to DMSO controls) (382 unique human kinases [5]; kinase EGFR (D770GY), compound 10 uM): 129.18% and 126.54%
- % Enzyme Activity (relative to DMSO controls) (382 unique human kinases [5]; kinase EGFR (D770_N771insNPG), compound 10 uM): 106.12% and 103.12%
- % Enzyme Activity (relative to DMSO controls) (382 unique human kinases [5]; kinase EGFR (d746), compound 10 uM): 98.75% and 97.31%
- % Enzyme Activity (relative to DMSO controls) (382 unique human kinases [5]; kinase EGFR (d746-750/T790M/C797S), compound 10 uM): 100.68% and 100.47%
- % Enzyme Activity (relative to DMSO controls) (382 unique human kinases [5]; kinase EGFR (d747-752/P753S), compound 10 uM): 98.74% and 98.40%
- % Enzyme Activity (relative to DMSO controls) (382 unique human kinases [5]; kinase ERBB2 (P780_Y781insGSP), compound 10 uM): 96.69% and 95.30%
- % Enzyme Activity (relative to DMSO controls) (382 unique human kinases [5]; kinase KSR1 (L639F), compound 10 uM): 103.34% and 102.74%
- % Enzyme Activity (relative to DMSO controls) (382 unique human kinases [5]; kinase PDGFRa-FIP1L1, compound 10 uM): 98.64% and 97.51%
- % Enzyme Activity (relative to DMSO controls) (382 unique human kinases [5]; kinase RET-BCR, compound 10 uM): 97.53% and 96.48%
- % Enzyme Activity (relative to DMSO controls) (382 unique human kinases [1]; CDK2/cyclin A, 10 uM): 97.81%
- remaining activity at 10 µM (382 unique human kinases [1]; CDK2/cyclin A, 10 uM): 97.9%
- % Enzyme Activity (relative to DMSO controls) (382 unique human kinases [1]; [6]): 100.70%
- remaining activity at 10 µM (382 unique human kinases [1]; [6]): 101%
- % Enzyme Activity (relative to DMSO controls) (382 unique human kinases [2]; CDK4/cyclin D1, 10 uM): 100.66%
- remaining activity at 10 µM (382 unique human kinases [2]; CDK4/cyclin D1, 10 uM): 103%
- % Enzyme Activity (relative to DMSO controls) (382 unique human kinases [3]; CDK9/cyclin T2, 10 uM): 89.68%
- remaining activity at 10 µM (382 unique human kinases [3]; CDK9/cyclin T2, 10 uM): 89.7%
- % Enzyme Activity (relative to DMSO controls) (382 unique human kinases [3]; [7]): 104.02%
- remaining activity at 10 µM (382 unique human kinases [3]; [7]): 104%
- % Enzyme Activity (relative to DMSO controls) (382 unique human kinases [4]): 105.58%
- remaining activity at 10 µM (382 unique human kinases [4]): 106%
